A word on the Ki: it is a measure of affinity in units of concentration, obtained from inhibition or displacement.

Here are results for 27 compounds from US9815796B2 (Merck Sharp & Dohme Corp., priority 2013, dated 2017).

Like-named read-outs stand apart in the source and are kept apart here.

In one assay the target is Rhesus PDE2A3 (Macaca mulatta, UniProt B3VTJ2). The experiment in a line: PDE2 fluorescence polarization (IMAP FP) inhibition assay, rhesus enzyme. Format: biochemical, rhesus macaque. A digest of the protocol: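 Rhesus PDE2A3 came from lysate of transiently transfected AD293 cells, diluted to give 20% substrate conversion. Substrate was 50 nM FAM-cAMP with 1 uM cGMP activator in Tris pH 7.2/MgCl2 buffer, run 60 min at room temperature over 10-point 3-fold dilutions in 1% DMSO. Read-out was IMAP fluorescence polarization (mP) after ≥1 h binding.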
Chain of Rhesus PDE2A3 (B3VTJ2 1-941): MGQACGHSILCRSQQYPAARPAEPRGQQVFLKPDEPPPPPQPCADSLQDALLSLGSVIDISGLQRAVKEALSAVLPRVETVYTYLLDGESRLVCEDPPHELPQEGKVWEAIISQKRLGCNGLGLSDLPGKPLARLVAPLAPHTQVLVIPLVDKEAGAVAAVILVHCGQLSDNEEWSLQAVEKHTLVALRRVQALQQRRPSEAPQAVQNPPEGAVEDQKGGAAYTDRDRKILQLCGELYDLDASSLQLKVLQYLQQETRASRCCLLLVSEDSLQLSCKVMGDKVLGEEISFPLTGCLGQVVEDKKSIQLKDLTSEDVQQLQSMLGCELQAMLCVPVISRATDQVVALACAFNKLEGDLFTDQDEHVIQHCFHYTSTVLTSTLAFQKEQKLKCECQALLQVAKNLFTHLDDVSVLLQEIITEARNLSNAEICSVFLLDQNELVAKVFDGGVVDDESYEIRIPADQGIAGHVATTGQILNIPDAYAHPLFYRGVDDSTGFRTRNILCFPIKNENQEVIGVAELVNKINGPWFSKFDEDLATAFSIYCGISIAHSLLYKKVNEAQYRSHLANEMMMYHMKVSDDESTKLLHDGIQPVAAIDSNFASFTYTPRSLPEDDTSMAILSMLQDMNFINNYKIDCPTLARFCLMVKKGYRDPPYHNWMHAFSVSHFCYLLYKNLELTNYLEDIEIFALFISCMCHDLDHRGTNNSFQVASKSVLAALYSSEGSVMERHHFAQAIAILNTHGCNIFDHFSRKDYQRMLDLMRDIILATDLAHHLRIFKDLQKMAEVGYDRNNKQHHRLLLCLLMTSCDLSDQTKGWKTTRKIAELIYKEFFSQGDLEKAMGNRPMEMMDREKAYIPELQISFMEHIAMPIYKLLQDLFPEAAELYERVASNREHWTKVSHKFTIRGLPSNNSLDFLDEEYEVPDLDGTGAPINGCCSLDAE
A general note: Fluorescence polarisation rises when a labelled molecule tumbles more slowly, as on binding a larger partner.

A further assay has as its target human PDE2A1 (Homo sapiens (Human), UniProt O00408). The experiment in a line: IMAP FP PDE selectivity panel, human PDE2A1. Format: biochemical. A digest of the protocol: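 GST-tagged human PDE2A1 expressed in insect cells, run at room temperature for 60 min with 50 nM FAM-cAMP containing 1000 nM cGMP, pH 7.2 Tris/MgCl2 buffer. IMAP fluorescence polarization read after binding step.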

The mark [1] stands for this setting: Rhesus PDE2, Lab B, read-out: Rhesus PDE2 Ki (nM) - Lab B.
Setting [2] is: Human PDE2, Lab B, read-out: Human PDE2 Ki (nM) - Lab B.
Setting [3] is: Rhesus PDE2, Lab A, read-out: Rhesus PDE2 Ki (nM) - Lab A.
Setting [4] is: Human PDE2, Lab A, read-out: Human PDE2 Ki (nM) - Lab A.

Chain of human PDE2A1 (O00408 other isoform, or with tags, fused parts or gaps): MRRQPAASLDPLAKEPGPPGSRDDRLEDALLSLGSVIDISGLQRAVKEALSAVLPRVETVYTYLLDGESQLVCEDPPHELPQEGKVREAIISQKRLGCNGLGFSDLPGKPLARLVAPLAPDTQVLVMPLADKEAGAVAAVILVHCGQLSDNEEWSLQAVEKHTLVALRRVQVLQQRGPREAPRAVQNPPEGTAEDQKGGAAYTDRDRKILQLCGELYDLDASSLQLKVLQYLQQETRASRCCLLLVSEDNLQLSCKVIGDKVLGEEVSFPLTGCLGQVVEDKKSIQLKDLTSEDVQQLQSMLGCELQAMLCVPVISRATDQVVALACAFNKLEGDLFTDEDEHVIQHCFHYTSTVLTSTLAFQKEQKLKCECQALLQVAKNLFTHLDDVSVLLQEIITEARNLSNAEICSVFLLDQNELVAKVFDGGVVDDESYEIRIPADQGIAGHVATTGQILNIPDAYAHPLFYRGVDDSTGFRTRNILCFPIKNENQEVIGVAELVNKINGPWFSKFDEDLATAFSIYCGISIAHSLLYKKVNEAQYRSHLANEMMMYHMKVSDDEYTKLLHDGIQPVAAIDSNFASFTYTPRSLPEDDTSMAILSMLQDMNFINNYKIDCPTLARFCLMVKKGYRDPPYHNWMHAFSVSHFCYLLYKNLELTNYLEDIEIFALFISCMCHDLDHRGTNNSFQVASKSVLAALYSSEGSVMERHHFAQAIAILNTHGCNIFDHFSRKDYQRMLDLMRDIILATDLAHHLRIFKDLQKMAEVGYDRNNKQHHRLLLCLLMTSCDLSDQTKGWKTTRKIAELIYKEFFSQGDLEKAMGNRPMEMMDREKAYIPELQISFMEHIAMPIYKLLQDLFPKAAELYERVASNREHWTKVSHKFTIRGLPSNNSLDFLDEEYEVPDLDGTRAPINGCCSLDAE

Take `Cc1nc(C(=O)N[C@@H](c2ccc(C3CC3)c(F)c2)C(C)(C)C)cc(=O)[nH]1` [Example 428, N-[(1R)-1-(4-cyclopropyl-3-fluorophenyl)-2,2-dimethylpropyl]-2-methyl-6-oxo-1,6-dihydropyrimidine-4-carboxamide]: the Ki at Rhesus PDE2A3 (setting [1]) was 1.9 nM; at human PDE2A1 (setting [2]), 1.8 nM.

In the case of `O=C(NC(c1ccc(C(F)(F)F)cc1)C(F)(F)F)c1cc(=O)[nH]c(-c2ccccc2)n1` (stereo not shown) [Example 393, 6-oxo-2-phenyl-N-{2,2,2-trifluoro-1-[4-(trifluoromethyl)phenyl]ethyl}-1,6-dihydropyrimidine-4-carboxamide], the inhibitory constant (Ki) at Rhesus PDE2A3 (setting [1]) was determined as 55 nM; on human PDE2A1 (setting [2]), 49 nM.

Take `Cc1nc(C(=O)NC(C)(C)c2ccc(C(F)(F)F)cc2)cc(=O)[nH]1` [Example 272, 2-methyl-N-{1-methyl-1-[4-(trifluoromethyl)phenyl]ethyl}-6-oxo-1,6-dihydropyrimidine-4-carboxamide]: the results for the Ki at Rhesus PDE2A3 (setting [3]), on human PDE2A1 (setting [4]) and on human PDE2A1 (setting [2]) were 42 nM, 40 nM and 71 nM, respectively.

On to `Cc1cc(C(F)(F)F)ccc1C(C)NC(=O)c1cc(=O)[nH]c(-c2ccccc2)n1` (stereo not shown) [Example 173, N-{1-[2-methyl-4-(trifluoromethyl)phenyl]ethyl}-6-oxo-2-phenyl-1,6-dihydropyrimidine-4-carboxamide], for which the Ki at Rhesus PDE2A3 (setting [3]) is 90 nM; at human PDE2A1 (setting [4]), 76 nM.

Turning to `Cc1nc(C(=O)NC(C)(C)c2ccc(C(F)(F)F)cc2F)cc(=O)[nH]1` [Example 596, N-{1-[2-fluoro-4-(trifluoromethyl)phenyl]-1-methylethyl}-2-methyl-6-oxo-1,6-dihydropyrimidine-4-carboxamide], the Ki at Rhesus PDE2A3 (setting [1]) worked out at 30 nM; at human PDE2A1 (setting [2]), 22 nM.

Consider `C[C@@H](NC(=O)c1cc(=O)[nH]c(-c2ccccc2)n1)c1ccc(OC(F)(F)F)cc1` [Example 275, 6-oxo-2-phenyl-N-{(1R)-1-[4-(trifluoromethoxy)phenyl]ethyl}-1,6-dihydropyrimidine-4-carboxamide], for which the figures for the Ki at Rhesus PDE2A3 (setting [3]) and at human PDE2A1 (setting [4]) were 4.5 nM and 3 nM, respectively.

`Cc1nc(C(=O)N[C@H](C)c2ccc(-c3cccc(F)c3)cc2)cc(=O)[nH]1` [Example 323, N-[(1R)-1-(3′-fluorobiphenyl-4-yl)ethyl]-2-methyl-6-oxo-1,6-dihydropyrimidine-4-carboxamide]: the Ki is 66 nM on Rhesus PDE2A3 (setting [3]) and 50 nM at human PDE2A1 (setting [4]).

As to `CC(C)[C@@H](NC(=O)c1cc(=O)[nH]c(-c2ccccc2)n1)c1ccc(SC(F)(F)F)cc1` [Example 419, N-[(1R)-2-methyl-1-{4-[(trifluoromethyl)sulfanyl]phenyl}pro-pyl]-6-oxo-2-phenyl-1,6-dihydropyrimidine-4-carboxamide], the Ki at Rhesus PDE2A3 (setting [1]) was determined as 3.3 nM; at human PDE2A1 (setting [2]), 2.9 nM.

In the case of `N#CC(NC(=O)c1cc(=O)[nH]c(-c2ccccc2)n1)c1ccc(C(F)(F)F)cc1` (stereo not shown) [Example 413, N-{cyano[4-(trifluoromethyl)phenyl]methyl}-6-oxo-2-phenyl-1,6-dihydropyrimidine-4-carboxamide], the Ki at Rhesus PDE2A3 (setting [1]) worked out at 105 nM; at human PDE2A1 (setting [2]) it was 126 nM.

Take `Cc1nc(C(=O)N[C@@H](c2ccc(C(F)(F)F)c(F)c2)C(C)C)cc(=O)[nH]1` [Example 240, N-{(1R)-1-[3-fluoro-4-(trifluoromethyl)phenyl]-2-methylpropyl}-2-methyl-6-oxo-1,6-dihydropyrimidine-4-carboxamide]: the results for the Ki at Rhesus PDE2A3 (setting [3]) and on human PDE2A1 (setting [4]) were 14 nM and 8.8 nM, respectively.

Regarding `Cc1nc(C(=O)N[C@H](C)c2ccc(C3(C)CC3)cc2)cc(=O)[nH]1` [Example 530, 2-methyl-N-{(1R)-1-[4-(1-methylcyclopropyl)phenyl]ethyl}-6-oxo-1,6-dihydropyrimidine-4-carboxamide], the Ki at Rhesus PDE2A3 (setting [1]) stood at 47 nM; on human PDE2A1 (setting [2]) it was 28 nM.

With `Cc1nc(C(=O)N[C@@H](c2ccc(SC(F)(F)F)c(F)c2)C(C)C)cc(=O)[nH]1` [Example 53, N-[(1R)-1-{3-fluoro-4-[(trifluoromethyl)sulfanyl]phenyl}-2-methylpropyl]-2-methyl-6-oxo-1,6-dihydropyrimidine-4-carboxamide], the results for the Ki on Rhesus PDE2A3 (setting [3]) and on human PDE2A1 (setting [4]) were 3.6 nM and 2.8 nM, respectively.

For `CC[C@@H](NC(=O)c1cc(=O)[nH]c(C2CC2)n1)c1ccc(OC(F)(F)F)c(F)c1` [Example 207], the figures for the Ki at Rhesus PDE2A3 (setting [3]) and at human PDE2A1 (setting [4]) were 5.8 nM and 2.6 nM, respectively.

`Cc1nc(C(=O)NC2(c3ccc(C(F)(F)F)cc3)CC2)cc(=O)[nH]1` [Example 1, 2-Methyl-6-oxo-N-{1-[4-(trifluoromethyl)phenyl]cyclopropyl}-1,6-dihydropyrimidine-4-carboxamide]: the Ki stood at 21 nM at Rhesus PDE2A3 (setting [3]), 28 nM at Rhesus PDE2A3 (setting [1]), 16 nM at human PDE2A1 (setting [4]) and 36 nM at human PDE2A1 (setting [2]).

For `CC(C)(NC(=O)c1cc(=O)[nH]c(-c2ccccc2)n1)c1ccc(C(F)(F)F)cc1` [Example 280, N-{1-methyl-1-[4-(trifluoromethyl)phenyl]ethyl}-6-oxo-2-phenyl-1,6-dihydropyrimidine-4-carboxamide], the Ki was 19 nM at Rhesus PDE2A3 (setting [3]) and 16 nM at human PDE2A1 (setting [4]).

For `O=C(N[C@@H](c1ccc(SC(F)(F)F)c(F)c1)C1CC1)c1cc(=O)[nH]c(-c2ccccc2)n1` [Example 417, N-[(R)-cyclopropyl{3-fluoro-4-[(trifluoromethyl)sulfanyl]phenyl}methyl]-6-oxo-2-phenyl-1,6-dihydropyrimidine-4-carboxamide], the Ki at Rhesus PDE2A3 (setting [1]) worked out at 12 nM; on human PDE2A1 (setting [2]), 9.8 nM.

Regarding `COc1ccc(Cc2nc(C(=O)N[C@@H](c3ccc(C(F)(F)F)c(F)c3)C(C)C)cc(=O)[nH]2)cc1F` [Example 514, 2-(3-fluoro-4-methoxybenzyl)-N-{(1R)-1-[3-fluoro-4-(trifluoromethyl)phenyl]-2-methylpropyl}-6-oxo-1,6-dihydropyrimidine-4-carboxamide], the Ki on Rhesus PDE2A3 (setting [1]) came out at 2.2 nM; at human PDE2A1 (setting [2]), 1.8 nM.

Take `COc1ccc2cc(C(C)NC(=O)c3cc(=O)[nH]c(C)n3)ccc2c1` (single isomer, unassigned) [Example 313, (R)- or (S)-N-[1-(6-methoxynaphthalen-2-yl)ethyl]-2-methyl-6-oxo-1,6-dihydropyrimidine-4-carboxamide]: the Ki at Rhesus PDE2A3 (setting [3]) stood at 51 nM; on human PDE2A1 (setting [4]) it was 54 nM.

For the compound `CC[C@@H](NC(=O)c1cc(=O)[nH]c(Cc2ccc(OC)c(F)c2)n1)c1ccc(S(F)(F)(F)(F)F)cc1` [Example 526, 2-(3-fluoro-4-methoxybenzyl)-6-oxo-N-{(1R)-1-[4-(pentafluoro-λ^6-sulfanyl)phenyl]propyl}-1,6-dihydropyrimidine-4-carboxamide], the Ki at Rhesus PDE2A3 (setting [1]) worked out at 4.1 nM; on human PDE2A1 (setting [2]), 3.9 nM.

Take `CC(C)(C)[C@@H](NC(=O)c1cc(=O)[nH]c(C2CC2)n1)c1ccc(CC(F)(F)F)cc1` [Example 441, 2-cyclopropyl-N-{(1R)-2,2-dimethyl-1-[4-(2,2,2-trifluoroethyl)phenyl]propyl}-6-oxo-1,6-dihydropyrimidine-4-carboxamide]: the Ki on Rhesus PDE2A3 (setting [1]) was 3.8 nM; on human PDE2A1 (setting [2]) it was 6.4 nM.

Take `C[C@@H](NC(=O)c1cc(=O)[nH]c(-c2ncccn2)n1)c1ccc(OC(F)(F)F)c(F)c1` [Example 103, N-{(1R)-1-[3-fluoro-4-(trifluoromethoxy)phenyl]ethyl}-6-oxo-1,6-dihydro-2,2′-bipyrimidine-4-carboxamide]: the Ki amounted to 5.5 nM on Rhesus PDE2A3 (setting [3]) and 3.4 nM at human PDE2A1 (setting [4]).

`COc1ccc(C(C)(C)c2nc(C(=O)N[C@@H](c3ccc(OC(F)(F)F)c(F)c3)C3CC3)cc(=O)[nH]2)cc1` [Example 498, N-{(R)-cyclopropyl[3-fluoro-4-(trifluoromethoxy)phenyl]methyl}-2-[1-(4-methoxyphenyl)-1-methylethyl]-6-oxo-1,6-dihydropyrimidine-4-carboxamide]: the values for the Ki on Rhesus PDE2A3 (setting [1]) and at human PDE2A1 (setting [2]) were 65 nM and 49 nM, respectively.

Consider `CC(NC(=O)c1cc(=O)[nH]c(-c2ncccn2)n1)c1ccc(C2CC2)cc1` (stereo not shown) [Example 83, N-[1-(4-cyclopropylphenyl)ethyl]-6-oxo-1,6-dihydro-2,2′-bipyrimidine-4-carboxamide], for which the Ki is 21 nM on Rhesus PDE2A3 (setting [3]), 26 nM on Rhesus PDE2A3 (setting [1]), roughly 5.4 nM at human PDE2A1 (setting [4]) and 27 nM at human PDE2A1 (setting [2]).

For the compound `C[C@@H](NC(=O)c1cc(=O)[nH]c(C2CC2)n1)c1cc(F)c(C(F)(F)F)c(F)c1` [Example 218, 2-cyclopropyl-N-{(1R)-1-[3,5-difluoro-4-(trifluoromethyl)phenyl]ethyl}-6-oxo-1,6-dihydropyrimidine-4-carboxamide], the Ki turned out to be 104 nM on Rhesus PDE2A3 (setting [3]) and 56 nM on human PDE2A1 (setting [4]).

In the case of `Cc1nc(C(=O)NC2(c3ccc(OC(F)(F)F)c(F)c3)CC2)cc(=O)[nH]1` [Example 67, N-{1-[3-fluoro-4-(trifluoromethoxy)phenyl]cyclopropyl}-2-methyl-6-oxo-1,6-dihydropyrimidine-4-carboxamide], the Ki on Rhesus PDE2A3 (setting [3]) is 16 nM; on Rhesus PDE2A3 (setting [1]) it was 19 nM; on human PDE2A1 (setting [4]) it was roughly 9.6 nM; on human PDE2A1 (setting [2]), 12 nM.

Take `O=C(NC1(c2ccc(SC(F)(F)F)cc2)CCC1)c1cc(=O)[nH]c(C2CC2)n1` [Example 204, 2-cyclopropyl-6-oxo-N-(1-{4-[(trifluoromethyl)sulfanyl]phenyl}cyclobutyl)-1,6-dihydropyrimidine-4-carboxamide]: the Ki at Rhesus PDE2A3 (setting [3]) was 37 nM; at human PDE2A1 (setting [4]) it was 20 nM.

`C[C@@H](NC(=O)c1cc(=O)[nH]c(-c2ccccc2)n1)c1ccc(OC(F)(F)F)c(F)c1` [Example 154, N-{(1R)-1-[3-fluoro-4-(trifluoromethoxy)phenyl]ethyl}-6-oxo-2-phenyl-1,6-dihydropyrimidine-4-carboxamide]: the Ki stood at 2.6 nM at Rhesus PDE2A3 (setting [3]) and 1.5 nM on human PDE2A1 (setting [4]).
